Settings: in vivo
Source text: Due to its simple nature, the dipeptide is rather inexpensive to manufacture.

Compound: CC[C@H](C)[C@H](N)C(=O)N[C@@H](Cc1c[nH]c2ccccc12)C(=O)O [Ile-Trp, L-Ile-L-Trp]
- significant side effects from the use of the dipeptide: not found any significant side effects

— patent publication US6139862A, “Pharmaceutical dipeptide compositions and methods of use thereof” (priority 1998, dated 2000)
